pIC50: −log10 of the molar value.
Experiments:
[1] = target: T1, ER (Homo sapiens, UniProt P03372); test: In-cell western blot analysis, relative ER percentage (compounds B1-B126); format: cell-based; conditions: ER degradation, 16 hours, read-out: ICW DC50
T1 construct: endogenous in cells; probably T47D or MCF-7
T1 sequence (P03372 1-595): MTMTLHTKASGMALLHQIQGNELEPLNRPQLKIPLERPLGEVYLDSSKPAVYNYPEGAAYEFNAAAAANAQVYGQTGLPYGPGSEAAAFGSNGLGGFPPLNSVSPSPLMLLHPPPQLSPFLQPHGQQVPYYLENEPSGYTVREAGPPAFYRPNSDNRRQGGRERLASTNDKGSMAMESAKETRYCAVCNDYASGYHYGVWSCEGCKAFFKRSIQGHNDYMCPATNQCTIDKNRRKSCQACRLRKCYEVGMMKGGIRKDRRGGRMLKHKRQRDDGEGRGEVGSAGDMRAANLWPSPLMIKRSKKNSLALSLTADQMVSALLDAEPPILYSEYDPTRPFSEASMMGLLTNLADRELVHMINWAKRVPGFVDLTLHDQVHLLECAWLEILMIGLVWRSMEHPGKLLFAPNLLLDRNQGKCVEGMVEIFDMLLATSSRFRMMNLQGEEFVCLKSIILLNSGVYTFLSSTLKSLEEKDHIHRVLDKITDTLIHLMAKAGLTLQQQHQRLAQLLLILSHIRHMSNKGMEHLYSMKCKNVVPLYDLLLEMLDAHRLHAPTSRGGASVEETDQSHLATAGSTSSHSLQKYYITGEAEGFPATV
How it was run: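 Readout was a two-colour infrared in-cell western of formaldehyde-fixed cells after 16 h compound exposure at 0.5% DMSO, with 40,000 or 10,000 cells/well plated the previous night. Relative ER percentage compares treated wells against untreated/DMSO-treated wells taken as 100%.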

[2] = Cell growth assay, WST-8 (compounds B1-B126); format: cell-based; conditions: 96 h; T47D cell line, WST-8, 4 days; read-out: Cell growth inhibition in T47D cell line IC50
How it was run: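 Read-out is WST-8 absorbance at 450 nm (2.5 h, 37° C) as a fraction of vehicle control, from three separate repeats. Compound exposure lasted 4 days, starting one day after plating 1500 cells/well.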

DC50 [1]	SMILES	pIC50 [2]
< 10 nM	C[C@@H]1Cc2c(ccc3[nH]ncc23)[C@@H](c2ccc(N3CC4(CC(CN5CCN6c7cc8c(cc7OC[C@@H]6C5)C(=O)N(C5CCC(=O)NC5=O)C8)CO4)C3)cn2)N1CC(F)(F)F (stereo partly drawn) [Compound B97, 3-((4aS)-3-((2-(6-((6S,8R)-8-methyl-7-(2,2,2-trifluoroethyl)-6,7,8,9-tetrahydro-3H-pyrazolo[4,3-f]isoquinolin-6-yl)pyridin-3-yl)-5-oxa-2-azaspiro[3.4]octan-7-yl)methyl)-8-oxo-1,2,3,4,4a,5,8,10-octahydro-9H-pyrazino[1′,2′:4,5][1,4]oxazino[2,3-f]isoindol-9-yl)piperidine-2,6-dione]	> 9.00
> 100 nM	COc1cc(N2CCC3(CC2)CC(CN2CCN4c5cc6c(cc5OC[C@H]4C2)C(=O)N(C2CCC(=O)NC2=O)C6)C3)ccc1[C@@H]1c2ccc3[nH]ncc3c2C[C@@H](C)N1CC(F)F (stereo partly drawn) [Compound B55, 3-((R)-3-((7-(4-((6S,8R)-7-(2,2-difluoroethyl)-8-methyl-6,7,8,9-tetrahydro-3H-pyrazolo[4,3-f]isoquinolin-6-yl)-3-methoxyphenyl)-7-azaspiro[3.5]nonan-2-yl)methyl)-8-oxo-1,2,3,4,4a,5,8,10-octahydro-9H-pyrazino[1′,2′:4,5][1,4]oxazino[2,3-f]isoindol-9-yl)piperidine-2,6-dione]	8.00 to 9.00
< 10 nM	COc1cc(N2CCC3(CCN(C(=O)CN4Cc5cc6c(cc5C4)C(=O)N(C4CCC(=O)NC4=O)C6=O)CC3)CC2)ccc1[C@@H]1c2ccc3[nH]ncc3c2C[C@@H](C)N1CC(F)F (stereo partly drawn) [Compound B68, 6-(2-(9-(4-((6S,8R)-7-(2,2-difluoroethyl)-8-methyl-6,7,8,9-tetrahydro-3H-pyrazolo[4,3-f]isoquinolin-6-yl)-3-methoxyphenyl)-3,9-diazaspiro[5.5]undecan-3-yl)-2-oxoethyl)-2-(2,6-dioxopiperidin-3-yl)-6,7-dihydropyrrolo[3,4-f]isoindole-1,3(2H,5H)-dione]	8.00 to 9.00
< 10 nM	C[C@@H]1Cc2c(ccc3[nH]ncc23)[C@@H](c2ccc(N3CCC(N4CC(N5CCN6c7cc8c(cc7OC[C@@H]6C5)C(=O)N(C5CCC(=O)NC5=O)C8)C4)CC3)cn2)N1CC(F)(F)F (stereo partly drawn) [Compound B52, 3-((S)-3-(1-(1-(6-((6S,8R)-8-methyl-7-(2,2,2-trifluoroethyl)-6,7,8,9-tetrahydro-3H-pyrazolo[4,3-f]isoquinolin-6-yl)pyridin-3-yl)piperidin-4-yl)azetidin-3-yl)-8-oxo-1,2,3,4,4a,5,8,10-octahydro-9H-pyrazino[1′,2′:4,5][1,4]oxazino[2,3-f]isoindol-9-yl)piperidine-2,6-dione]	> 9.00
< 10 nM	C[C@@H]1Cc2c(ccc3[nH]ncc23)[C@@H](c2cnc(N3CCC4(CC3)CC(CN3CCN5c6ccc7c(c6OC[C@H]5C3)CN(C3CCC(=O)NC3=O)C7=O)C4)nc2)N1CC(F)(F)F (stereo partly drawn) [Compound B112, 3-((R)-7-((7-(5-((6S,8R)-8-methyl-7-(2,2,2-trifluoroethyl)-6,7,8,9-tetrahydro-3H-pyrazolo[4,3-f]isoquinolin-6-yl)pyrimidin-2-yl)-7-azaspiro[3.5]nonan-2-yl)methyl)-1-oxo-1,3,5,5a,6,7,8,9-octahydro-2H-pyrazino[1′,2′:4,5][1,4]oxazino[2,3-e]isoindol-2-yl)piperidine-2,6-dione]	> 9.00
< 10 nM	C[C@@H]1Cc2c(ccc3[nH]ncc23)[C@@H](c2c(F)cc(N3CCC(CN4CCN5c6cc7c(cc6N(C)C[C@@H]5C4)C(=O)N(C4CCC(=O)NC4=O)C7)CC3)cc2F)N1CC(F)F (stereo partly drawn) [Compound B29, 3-((S)-3-((1-(4-((6S,8R)-7-(2,2-difluoroethyl)-8-methyl-6,7,8,9-tetrahydro-3H-pyrazolo[4,3-f]isoquinolin-6-yl)-3,5-difluorophenyl)piperidin-4-yl)methyl)-6-methyl-8-oxo-2,3,4,4a,5,6,8,10-octahydropyrazino[1,2-a]pyrrolo[3,4-g]quinoxalin-9(1H)-yl)piperidine-2,6-dione]	> 9.00
10 to 100 nM	C[C@@H]1Cc2c(ccc3[nH]ncc23)[C@@H](c2ccc(N3CCC(CN4CCC5(CC4)COc4c(ccc6c4CN([C@H]4CCC(=O)NC4=O)C6=O)O5)CC3)cn2)N1CC(F)(F)F [Compound B119, (S)-3-(1-((1-(6-((6S,8R)-8-methyl-7-(2,2,2-trifluoroethyl)-6,7,8,9-tetrahydro-3H-pyrazolo[4,3-f]isoquinolin-6-yl)pyridin-3-yl)piperidin-4-yl)mcthyl)-7′-oxo-7′,9′-dihydro-2′H,8′H-spiro[piperidine-4,3′-[1,4]dioxino[2,3-e]isoindol]-8′-yl)piperidine-2,6-dione]	> 9.00
< 10 nM	C[C@@H]1Cc2c(ccc3[nH]ncc23)[C@@H](c2c(F)cc(N3CCC4(CCN(C(=O)CN5CCN6c7cc8c(cc7OC[C@@H]6C5)C(=O)N(C5CCC(=O)NC5=O)C8)CC4)C3)cc2F)N1CC(F)F (stereo partly drawn) [Compound B23, 3-((S)-3-(2-(2-(4-((6S,8R)-7-(2,2-difluoroethyl)-8-methyl-6,7,8,9-tetrahydro-3H-pyrazolo[4,3-f]isoquinolin-6-yl)-3,5-difluorophenyl)-2,8-diazaspiro[4.5]decan-8-yl)-2-oxoethyl)-8-oxo-1,2,3,4,4a,5,8,10-octahydro-9H-pyrazino[1′,2′:4,5][1,4]oxazino[2,3-f]isoindol-9-yl)piperidine-2,6-dione]	> 9.00
< 10 nM	C[C@@H]1Cc2c(ccc3[nH]ncc23)[C@@H](c2c(F)cc(NC3CC4(C3)CN(C(=O)CN3Cc5cc6c(cc5C3)C(=O)N(C3CCC(=O)NC3=O)C6=O)C4)cc2F)N1CC(F)F (stereo partly drawn) [Compound B44, 6-(2-(6-((4-((6S,8R)-7-(2,2-difluoroethyl)-8-methyl-6,7,8,9-tetrahydro-3H-pyrazolo[4,3-f]isoquinolin-6-yl)-3,5-difluorophenyl)amino)-2-azaspiro[3.3]heptan-2-yl)-2-oxoethyl)-2-(2,6-dioxopiperidin-3-yl)-6,7-dihydropyrrolo[3,4-f]isoindole-1,3(2H,5H)-dione]	> 9.00

SMILES	DC50 [1]	pIC50 [2]
C[C@@H]1Cc2c(ccc3[nH]ncc23)[C@@H](c2ccc(N3CCC4(CC3)CC(CN3CCC5(CC3)COc3c5ccc5c3CN(C3CCC(=O)NC3=O)C5=O)CO4)cn2)N1CC(F)(F)F (stereo partly drawn) [Compound B95, 3-(1′-((8-(6-((6S,8R)-8-methyl-7-(2,2,2-trifluoroethyl)-6,7,8,9-tetrahydro-3H-pyrazolo[4,3-f]isoquinolin-6-yl)pyridin-3-yl)-1-oxa-8-azaspiro[4.5]decan-3-yl)methyl)-6-oxo-6,8-dihydro-2H,7H-spiro[furo[2,3-e]isoindole-3,4′-piperidin]-7-yl)piperidine-2,6-dione]	> 100 nM	> 9.00
COc1cc(N2CCC3(CC2)OCC(CN2CCC4(CC2)COc2c4ccc4c2CN(C2CCC(=O)NC2=O)C4=O)CO3)ccc1[C@@H]1c2ccc3[nH]ncc3c2C[C@@H](C)N1CC(F)F (stereo partly drawn) [Compound B117, 3-(1′-((9-(4-((6S,8R)-7-(2,2-difluoroethyl)-8-methyl-6,7,8,9-tetrahydro-3H-pyrazolo[4,3-f]isoquinolin-6-yl)-3-methoxyphenyl)-1,5-dioxa-9-azaspiro[5.5]undecan-3-yl)methyl)-6-oxo-6,8-dihydro-2H,7H-spiro[furo[2,3-e]isoindole-3,4′-piperidin]-7-yl)piperidine-2,6-dione]	< 10 nM	> 9.00
C[C@@H]1Cc2c(ccc3[nH]ncc23)[C@@H](c2ccc(N3CCC4(CC3)CN(C(=O)CN3CCC5(CC3)COc3c5ccc5c3CN(C3CCC(=O)NC3=O)C5=O)C4)cn2)N1CC(F)(F)F (stereo partly drawn) [Compound B78, 3-(1′-(2-(7-(6-((6S,8R)-8-methyl-7-(2,2,2-trifluoroethyl)-6,7,8,9-tetrahydro-3H-pyrazolo[4,3-f]isoquinolin-6-yl)pyridin-3-yl)-2,7-diazaspiro[3.5]nonan-2-yl)-2-oxoethyl)-6-oxo-6,8-dihydro-2H,7H-spiro[furo[2,3-e]isoindole-3,4′-piperidin]-7-yl)piperidine-2,6-dione]	< 10 nM	> 9.00
C[C@@H]1Cc2c(ccc3[nH]ncc23)[C@@H](c2ccc(N3CC4(CCC(CN5CCC6(CC5)COc5c6ccc6c5CN(C5CCC(=O)NC5=O)C6=O)CC4)C3)cn2)N1CC(F)(F)F (stereo partly drawn) [Compound B57, 3-(1′-((2-(6-((6S,8R)-8-mcthyl-7-(2,2,2-trifluoroethyl)-6,7,8,9-tetrahydro-3H-pyrazolo[4,3-f]isoquinolin-6-yl)pyridin-3-yl)-2-azaspiro[3.5]nonan-7-yl)methyl)-6-oxo-6,8-dihydro-2H,7H-spiro[furo[2,3-e]isoindole-3,4′-piperidin]-7-yl)piperidine-2,6-dione]	< 10 nM	> 9.00

Reference: patent US20260256925A1, “INDAZOLE DERIVATIVES AS ESTROGEN RECEPTOR DEGRADERS” (REGENTS OF THE UNIVERSITY OF MICHIGAN, priority 2022, published 2026)
